Data published in paper PMC8502973 (Frontiers in Physiology, 2021).
“Also recorded” adds a separate entry of the source.

Legend:
[1] = Dose escalation: food intake; assay type: in vivo, male DIO Sprague Dawley rats
Procedure: (§1) Sprague Dawley rats (male, ∼4 weeks of age, 51–75 g body weight) were switched from standard chow to a high fat diet (Research Diets, Diet # D12492, 60, 20, 20%kcal from fat, protein, and carbohydrate, respectively, 5.21 kcal/g; stored at −20°C). The rats were maintained on this diet for approximately 15 weeks prior to the start of experiments to develop a diet-induced overweight (DIO) model. Animals were individually housed on a 12 h/12 h light/dark cycle (lights on at 04:00 h) in a temperature (23°C) and humidity (mean 50%, SD 10%) controlled room. All body weight measurements were made just prior to the start of the dark cycle.
(§2) Sequential rounds of a 3-day baseline phase (vehicle treated), a 3-day treatment phase, and a washout phase (2–5 days as necessary) were tested. […] High fat diet was accessible to the rats from all but the last 6 h of the light cycle and water was provided ad libitum. This daily period of food restriction was used to prevent incidental feeding in the event animals were disturbed from their sleep by noise from surrounding rooms. To assess a potential pica response (nausea/visceral malaise) in animals, powdered kaolin (Sigma-Aldrich, K1512) was made available on drug treatment days with a restriction period similar to the high fat diet. Prior to the first experiment, rats were provided access to kaolin for 2 days so that they could familiarize themselves with it prior to start of testing. Food and kaolin intake were continuously recorded using AccuScan DietMax (currently OmniTech Electronics, Inc., Diet System) cages. The high fat diet was compressed in the food tray to form a solid block of food. This allows for more accurate meal size measurements by preventing the animals from removing entire pellets at time. All food and kaolin intake data were binned into 15-min intervals for analysis and the start of the 24-h food intake period aligned to the lights turning off in the animal room. Body weight was recorded, and treatment injections were administered just prior to the start of the dark cycle.

[2] = parameters: method as in Freeman et al., 2016; settings: peripheral administration, macaques; ref Freeman et al., 2016; cited from earlier work
Toxicity / mortality = assay type: in vivo; settings: rat, in vivo, sc
[3] = Dose escalation: water intake; assay type: in vivo, male DIO Sprague Dawley rats; settings: sc once daily; ASK1476 F(1.80, 12.61) = 3.15, p = 0.082; OXT F(1.68, 11.72) = 4.05, p = 0.086
Procedure: as §1
(§3) Sequential rounds of a 3-day baseline phase (vehicle treated), a 3-day treatment phase, and a washout phase (2–5 days as necessary) were tested. […] High fat diet was accessible to the rats from all but the last 6 h of the light cycle and water was provided ad libitum. This daily period of food restriction was used to prevent incidental feeding in the event animals were disturbed from their sleep by noise from surrounding rooms. […] Food and kaolin intake were continuously recorded using AccuScan DietMax (currently OmniTech Electronics, Inc., Diet System) cages. […] Body weight was recorded, and treatment injections were administered just prior to the start of the dark cycle.

[4] = Dose escalation: kaolin intake (pica, nausea/visceral malaise); assay type: in vivo, male DIO Sprague Dawley rats
Procedure: as §1, §2

[5] = Dose escalation: body weight change; assay type: in vivo, male DIO Sprague Dawley rats; settings: sc once daily
Procedure: as §1, §3

[6] = cited from earlier work
From the text: (§4) Finally, the potential for toxic side effects upon chronic administration at high concentration and/or f ...

hOXTR = tested on: hOXTR; parameters: method as in 2 sources, one per row (each row's own in cited_ref): ref Wiśniewski et al. (2014) ||| ref Modi et al. (2016); settings: OXT; ref Wiśniewski et al. (2014); cited from earlier work
[7] = Long-term: gross motor activity and body temperature (Mini-Mitter transponders); assay type: in vivo, male DIO Sprague Dawley rats; settings: 28-day study, n = 5 per group, first 12 days analysed
From the text: (§5) Male DIO Sprague Dawley rats (n = 24) were generated as outlined above and were 644.5 g (50 g) at the start of drug treatment. The animals were divided into three treatment groups (n = 8 each) balanced for body weight, body weight gain during baseline, food intake, and Lee Index [body weight^(1/3)/snout to anus length (mm)] ([Lee, 1929]; [Simson and Gold, 1982]) as an indicator of adiposity (Figure 2). In a subset of the animals (n = 5 per group, balanced for prior mentioned criteria), Mini-Mitter transponders (PDT-4000 E-Mitter, Respironics Inc.) were implanted posterior to the left scapula at least 9 days prior to start of baseline measures to ensure sufficient recovery time. Body temperature and gross motor activity were continuously recorded via these transponders. […] High fat diet and water were provided ad libitum and intake was recorded with daily hopper and water bottle weighs at time of body weight assessment just prior to drug administration. Blood samples were taken at start of intervention by tail vein bleeding and via cardiac puncture under an isoflurane induced surgical plane of anesthesia at euthanasia. Animals were euthanized on treatment day 29, 4 h after receiving a dose of their assigned treatment, via decapitation under isoflurane anesthesia immediately following blood draw. Body composition was assessed on carcasses.
For comparisons of mean longitudinal changes in body temperature and activity, only the first 12 days of treatment, divided into three 4-day phases, were included in the analysis. These 4-day phases allowed for analyses to consider the ASK1476 dose titration.

[8] = Long-term: body composition of carcasses by quantitative magnetic resonance; assay type: in vivo, male DIO Sprague Dawley rats
From the text: as §5
Body composition (total and relative fat mass, lean mass, and water content) was assessed on carcasses from the long-term drug intervention study using Quantitative Magnetic Resonance (EchoMRI 4-in-1, Echo Medical Systems, Houston, TX) at the Rodent Metabolic and Behavioral Phenotyping Core at the VA Puget Sound Health Care System (VAPSHCS).

[9] = tested on: OXTR compared with the V1aR; parameters: method as in Akerlund et al., 1999; settings: ref Akerlund et al., 1999; cited from earlier work
From the text: as §4

hV1aR = tested on: hV1aR; parameters: method as in 3 sources, one per row (each row's own in cited_ref): ref Wiśniewski et al. (2014) ||| ref Modi et al. (2016) ||| ref Modi et al., 2016; settings: OXT; ref Wiśniewski et al. (2014); cited from earlier work
[10] = 2015, cited from earlier work
From the text: OXT is a downstream target of the adipose tissue hormone leptin.

[11] = Long-term (28-day) drug intervention: body weight; assay type: in vivo, male DIO Sprague Dawley rats
Procedure: as §1, §5
From treatment day 8 on the doses were maintained to assess long-term efficacy at a therapeutically meaningful dose.

In the case of oxytocin [OXT], the “reduction in 3-day averaged food intake” value ([1]; OXT 20 nmol/kg sc once daily vs 3-day saline baseline, n = 8, 95% CI −19.40 to −2.94, p = 0.0106) is reported as -11.17 kcal/day, the “lowest dose with significant reduction in 3-day averaged food intake” value ([1]; sc once daily, 3 days, n = 8) is reported as 20 nmol/kg and the “interaction of treatment and dose on 3-day averaged food intake” value ([1]; sc once daily, ASK1476 F(2.84, 19.86) = 6.52, p = 0.003, OXT F(1.89, 13.25) = 9.49, p = 0.003) is reported as “significant interaction”. For the same substance, the “entry into the CSF from the periphery” value [2] was “only small amounts”, the “adverse effects or tolerability issues” value (Toxicity / mortality) was “No adverse effects or tolerability issues were observed” and the water intake [3] was “not significantly affected”. The “visceral malaise signal (notably high kaolin intake in a few animals)” value ([4]; ASK1476 dosing spectrum) was “not observed in any”, the “kaolin intake at low doses” value ([4]; low doses, sc once daily) was “below 4 g/d” and the “kaolin intake, effect of treatment” value ([4]; sc once daily, ASK1476 6-300 nmol/kg F(1.80, 12.59) = 2.26, p = 0.148, OXT 20-1200 nmol/kg F(1.51, 10.52) = 1.73, p = 0.223) was “no significant effect of treatment”. For the same substance, the “body weight gain across dosing spectrum” value ([5]; ASK1476 6-300 nmol/kg, OXT 20-1200 nmol/kg, 3 days) was “Significant reductions in body weight gain; also recorded: effective in reducing body weight gain across the dose spectrum”, the “interaction of treatment and dose on body weight change” value ([5]; ASK1476 F(2.08, 15.54) = 9.50, p = 0.002, OXT F(2.40, 16.79) = 16.98, p < 0.0001) was “significant interaction” and the half-life in vivo [6] was about 5 min. The EC50 (hOXTR) was 2.3 nM, the “locomotor activity or body temperature” value [7] was “did not find any evidence” and the “locomotor activity or body temperature” value ([7]; listed as oxytocin) was “no effects were detected on locomotor activity or body temperature”. For the same substance, the “fat mass, difference vs vehicle” value ([8]; OXT 600 nmol/kg/d 28 days, 95% CI −97.2 to 7.2, p = 0.103) was -45.0 g, the “lean mass, difference vs vehicle” value ([8]; OXT 600 nmol/kg/d 28 days, 95% CU −109.8 to −5.4, p = 0.028) was -57.6 g and the “Lean mass, post-treatment” value ([8]; after 28-day Tx, n = 8, Mean ± SD, oxytocin * p < 0.05 vs vehicle, ANOVA p 0.015) was 416.531.9* g. For the same substance, the “affinity for the OXTR compared with the V1aR” value [9] was “fivefold greater affinity”, the EC50 (hV1aR) was 10 nM and the “food intake, energy expenditure and weight gain” value ([10]; peripheral administration, diet-induced and genetically obese rodent models, ref Maejima et al., 2011, Morton et al., 2012, Blevins et al.) was “reduces food intake, enhances energy expenditure, and prevents or reduces weight gain”. The “energy expenditure / weight loss in diet-induced obese non-human primates” value ([10]; ref Blevins et al.) was “elicits weight loss, in part, by increasing energy expenditure”, the “compensatory weight gain / weight regain following nadir” value ([11]; 28-d treatment) was “significantly lower rates of weight regain following body weight nadir” and the “average day of body weight nadir” value ([11]; 28-day treatment, sc once daily) was 14 days. For the same substance, the “daily percent change of body weight from nadir, mean difference vs. vehicle” value ([11]; OXT: 95% CI −0.23 to 0.01, p = 0.069) was −0.11%, the “Body weight, post-treatment” value ([11]; after 28-day Tx, ASK1476 to 120 or OXT 600 nmol/kg/d sc, n = 8, Mean ± SD, oxytocin * p < 0.05 vs vehicle, ANOVA p 0.041) was 615.143.2* g and the “reduction in body weight, OXT 600 nmol/kg/d compared with ASK1476 30 and 60 nmol/kg” value ([11]; long-term study, titration phases) was “significantly greater reductions in body weight”. The “average daily individual percent change of body weight from nadir to end of treatment” value ([11]; mean, SD 0.04% ASK1476, 0.16% OXT, vehicle 0.34% (SD 0.05%)) was 0.23% and the “weight stability during final 20 days” value ([11]; treatment days 9-28) was “remained weight stable”.
